Test results from article PMC9518264, “Design and synthesis of novel quinazolinone-based derivatives as EGFR inhibitors with antitumor activity” (Journal of Enzyme Inhibition and Medicinal Chemistry, 2022).
Where two headings read alike, the source gives them in different places.

How the values were obtained:
CAKI-1 = test: cells; format: cell-based; conditions: Homo sapiens
HL-60(TB) = test: cells; format: cell-based; conditions: Homo sapiens
SW-620 = test: cells; format: cell-based; conditions: Homo sapiens
M14 = test: cells; format: cell-based; conditions: Homo sapiens
MDA-MB-468 = test: NCI 60 cell line antiproliferative screening (SRB), Breast cancer; conditions: Homo sapiens, MDA-MB-468, read-out: growth inhibition % (GI%)
DU-145 = test: cells; format: cell-based; conditions: Homo sapiens
RXF 393 = test: cells; format: cell-based; conditions: Homo sapiens
EGFR = EGFR (Homo sapiens, UniProt P00533); test: In vitro EGFR kinase inhibitory assay (Kinase-Glo Max luminescence kit); format: biochemical
HOP-62 = test: cells; format: cell-based; conditions: Homo sapiens
ACHN = test: cells; format: cell-based; conditions: Homo sapiens, read-out: growth inhibition % (GI%)
786-0 = test: cells; format: cell-based; conditions: Homo sapiens
MDA-MB-231/ATCC = test: NCI 60 cell line antiproliferative screening (SRB), Breast cancer; format: cell-based; conditions: Homo sapiens, MDA-MB-231, read-out: growth inhibition % (GI%)
SK-MEL-28 = test: cells; format: cell-based; conditions: Homo sapiens
OVCAR-5 = test: cells; format: cell-based; conditions: Homo sapiens
[1] = CAKI-1, read-out: growth inhibition % (GI%)
[2] = HL-60, read-out: growth inhibition % (GI%)
[3] = SW-620, read-out: growth inhibition % (GI%)
[4] = M14, read-out: growth inhibition % (GI%)
[5] = DU-145, read-out: growth inhibition % (GI%)
[6] = RXF 393, read-out: growth inhibition % (GI%)
[7] = HOP-62, read-out: growth inhibition % (GI%)
[8] = 786-0, read-out: growth inhibition % (GI%)
[9] = SK-MEL-28, read-out: growth inhibition % (GI%)
[10] = OVCAR-5, read-out: growth inhibition % (GI%)
[11] = HL-60(TB), 10 μM, read-out: growth inhibition % (GI%)
[12] = SW-620, 10 μM, read-out: growth inhibition % (GI%)
[13] = DU-145, 10 μM, read-out: growth inhibition % (GI%)
[14] = HOP-62, 10 μM, read-out: growth inhibition % (GI%)
[15] = 786-0, 10 μM, read-out: growth inhibition % (GI%)
[16] = SK-MEL-28, 10 μM, read-out: growth inhibition % (GI%)
[17] = OVCAR-5, 10 μM, read-out: growth inhibition % (GI%)

EGFR, sequence (P00533 669-1210): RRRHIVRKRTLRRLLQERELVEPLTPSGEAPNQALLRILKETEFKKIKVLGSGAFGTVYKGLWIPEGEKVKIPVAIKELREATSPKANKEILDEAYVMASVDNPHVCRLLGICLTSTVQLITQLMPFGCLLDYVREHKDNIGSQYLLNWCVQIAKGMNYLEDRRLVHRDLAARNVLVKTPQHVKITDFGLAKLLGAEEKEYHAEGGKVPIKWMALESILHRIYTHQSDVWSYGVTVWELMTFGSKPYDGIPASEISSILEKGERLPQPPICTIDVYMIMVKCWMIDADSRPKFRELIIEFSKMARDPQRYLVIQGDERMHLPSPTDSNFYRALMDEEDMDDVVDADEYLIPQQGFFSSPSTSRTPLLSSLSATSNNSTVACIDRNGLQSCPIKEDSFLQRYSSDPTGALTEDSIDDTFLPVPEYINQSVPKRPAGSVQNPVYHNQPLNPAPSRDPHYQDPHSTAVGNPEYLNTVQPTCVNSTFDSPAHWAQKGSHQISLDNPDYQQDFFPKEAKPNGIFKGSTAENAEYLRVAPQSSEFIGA

SMILES	inhibition at 10 µM (HL-60(TB); [2]) [%]	inhibition at 10 µM (SW-620; [3]) [%]	inhibition at 10 µM (MDA-MB-468) [%]	inhibition at 10 µM (DU-145; [5]) [%]	IC50 (EGFR) [nM]	inhibition at 10 µM (HOP-62; [7]) [%]	inhibition at 10 µM (ACHN) [%]	inhibition at 10 µM (786-0; [8]) [%]	inhibition at 10 µM (MDA-MB-231/ATCC) [%]	inhibition at 10 µM (SK-MEL-28; [9]) [%]	inhibition at 10 µM (OVCAR-5; [10]) [%]	inhibition at 10 µM (HL-60(TB); [11]) [%]	inhibition at 10 µM (SW-620; [12]) [%]	inhibition at 10 µM (DU-145; [13]) [%]	inhibition at 10 µM (HOP-62; [14]) [%]	inhibition at 10 µM (ACHN; 10 μM) [%]	inhibition at 10 µM (786-0; [15]) [%]	inhibition at 10 µM (SK-MEL-28; [16]) [%]	inhibition at 10 µM (OVCAR-5; [17]) [%]	other results
O=C(CSc1nc2ccccc2c(=O)n1-c1ccccc1)NN=Cc1ccc(Oc2ccc(Cl)cc2)cc1 [6a, N'-(4–(4-chlorophenoxy)benzylidene)-2-((4-oxo-3-phenyl-3,4-dihydroquinazolin-2-yl)thio)acetohydrazide]	< 15	56.9	28.4	61.6	202 ± 12	40.9	25.5	46.8	50.8	37.6	18.6									inhibition at 10 µM (CAKI-1; [1]): 40.8%; inhibition at 10 µM (M14; [4]): 51.2%; inhibition at 10 µM (RXF 393; [6]): 58%
O=C(CSc1nc2ccccc2c(=O)n1-c1ccccc1)NN=Cc1ccc(Oc2ccc(Br)cc2)cc1 [6b, N'-(4–(4-bromophenoxy)benzylidene)-2-((4-oxo-3-phenyl-3,4-dihydroquinazolin-2-yl)thio) acetohydrazide]	< 15	70.4	34.9	61.7	487 ± 30	36.1	< 15	54	49.1	29.1	< 15									inhibition at 10 µM (CAKI-1; [1]): 29.2%; inhibition at 10 µM (M14; [4]): 43.7%; inhibition at 10 µM (RXF 393; [6]): 37.8%
COc1ccc(Oc2ccc(C=NNC(=O)CSc3nc4ccccc4c(=O)n3-c3ccccc3)cc2)cc1 [6c, N'-(4–(4-methoxyphenoxy)benzylidene)-2-((4-oxo-3-phenyl-3,4-dihydroquinazolin-2-yl)thio)acetohydrazide]			< 15						< 15			< 15	< 15	< 15	< 15	< 15	< 15	< 15	< 15	
O=C(CSc1nc2ccccc2c(=O)n1-c1ccc(Cl)cc1)NN=Cc1ccc(Oc2ccc(Br)cc2)cc1 [6e, N'-(4–(4-bromophenoxy)benzylidene)-2-((3–(4-chlorophenyl)-4-oxo-3,4-dihydroquinazolin-2-yl)thio)acetohydrazide]			< 15						< 15			< 15	< 15	< 15	< 15	< 15	< 15	< 15	< 15	
COc1ccc(Oc2ccc(C=NNC(=O)CSc3nc4ccccc4c(=O)n3-c3ccc(Cl)cc3)cc2)cc1 [6f, 2-((3–(4-chlorophenyl)-4-oxo-3,4-dihydroquinazolin-2-yl)thio)-N'-(4–(4-methoxyphenoxy)benzylidene)acetohydrazide]	< 15	55.6	33.2	50.8	133 ± 8	26.7	92.2	74.8	53.3	< 15	18.8									
O=C(CSc1nc2ccccc2c(=O)n1-c1ccccc1)NN=Cc1ccc(N2CCCCC2)cc1 [6g, 2-((4-oxo-3-phenyl-3,4-dihydroquinazolin-2-yl)thio)-N'-(4-(piperidin-1-yl)benzylidene) acetohydrazide]			< 15						< 15			< 15	< 15	< 15	< 15	< 15	< 15	< 15	< 15	inhibition at 10 µM (CAKI-1; CAKI-1, 10 μM, read-out: growth inhibition % (GI%)): 22%; melting point: 164 to 166 °C; inhibition at 10 µM (M14; M14, 10 μM, read-out: growth inhibition % (GI%)): < 15%; inhibition at 10 µM (RXF 393; RXF 393, 10 μM, read-out: growth inhibition % (GI%)): < 15%
O=C(CSc1nc2ccccc2c(=O)n1-c1ccccc1)NN=Cc1ccc(N2CCOCC2)cc1 [6h, N'-(4-morpholinobenzylidene)-2-((4-oxo-3-phenyl-3,4-dihydroquinazolin-2-yl)thio)acetohydrazide]			< 15						< 15			< 15	< 15	< 15	< 15	< 15	< 15	< 15	< 15	
CN1CCN(c2ccc(C=NNC(=O)CSc3nc4ccccc4c(=O)n3-c3ccccc3)cc2)CC1 [6i, N'-(4–(4-methylpiperazin-1-yl)benzylidene)-2-((4-oxo-3-phenyl-3,4-dihydroquinazolin-2-yl)thio) acetohydrazide]			< 15						< 15			< 15	< 15	< 15	< 15	< 15	< 15	< 15	< 15	
O=C(CSc1nc2ccccc2c(=O)n1-c1ccc(Cl)cc1)NN=Cc1ccc(N2CCCCC2)cc1 [6j, 2-((3–(4-chlorophenyl)-4-oxo-3,4-dihydroquinazolin-2-yl)thio)-N'-(4-(piperidin-1-yl)benzylidene) acetohydrazide]	< 15	34.1	20.5	70.9	478 ± 29	81.6	82.6	92.8	28.1	15.2	23.1									
O=C(CSc1nc2ccccc2c(=O)n1-c1ccc(Cl)cc1)NN=Cc1ccc(N2CCOCC2)cc1 [6k, 2-((3–(4-chlorophenyl)-4-oxo-3,4-dihydroquinazolin-2-yl)thio)-N'-(4-morpholinobenzylidene) acetohydrazide]			< 15						< 15			< 15	< 15	< 15	< 15	< 15	< 15	< 15	< 15	
CN1CCN(c2ccc(C=NNC(=O)CSc3nc4ccccc4c(=O)n3-c3ccc(Cl)cc3)cc2)CC1 [6l, 2-((3–(4-chlorophenyl)-4-oxo-3,4-dihydroquinazolin-2-yl)thio)-N'-(4–(4-methylpiperazin-1-yl)benzylidene)acetohydrazide]			< 15						< 15			< 15	< 15	< 15	< 15	< 15	< 15	< 15	< 15	
